Data on nine compounds can be found in PMC12567398, “New Assay Systems to Characterize the Broad-Spectrum Antiherpesviral and Non-Herpesviral Activity of Cyclin-Dependent Kinase (CDK) 8 Inhibitors” (Pharmaceuticals, 2025).

The EC50 is the concentration at which the effect is half-maximal.

Read-outs that look alike come from different tables or passages of the source.

Data set [1] deals with MHV-68-Luc. As to the kind of experiment: MHV-68-Luc luciferase reporter assay. Format: cell-based, murine herpesvirus 68. Particulars: Murine herpesvirus. Background: A reporter such as luciferase makes a cellular process visible.
Data set [2] in a line: Neutral Red uptake cell viability assay, MEF. Particulars: mouse.
Data set [3] in a line: Neutral Red uptake cell viability assay, HFF. As to conditions: human.
A short description of data set [4]: Neutral Red uptake cell viability assay, Vero. As to conditions: African green monkey.
Data set [5] can be described thus: Neutral Red uptake / Alamar Blue cell viability assay, 293T. As to conditions: human. (In general: The colour change of resazurin is a common sign of viable cells or microbes.)
For data set [6], the system named is EHV-1-GFP. As to the kind of experiment: EHV-1-GFP antiviral assay, GFP fluorometry. It is filed as cell-based, equine herpesvirus 1.
For data set [7], the system named is HHV-6A-GFP. As to the kind of experiment: HHV-6A plaque reduction assay in HFFs. Particulars: read-out: Antiviral mean EC50 based on plaque assay measurements. (In general: Plaque reduction counts the foci of infection that form in a cell layer.)
Data set [8] can be described thus: Neutral Red uptake cell viability assay, COS-7. As to conditions: African green monkey.
The test system of data set [9] is vaccinia virus VV IHD-5. As to the kind of experiment: microbe, parasite or virus in culture. It is filed as cell-based.
Data set [10] in a line: in vitro. As to conditions: human.
The test system of data set [11] is Epstein–Barr virus P3HR-1. As to the kind of experiment: EBV lytic assay in TPA-induced P3HR-1 cells, qPCR. Format: cell-based.
Data set [12] concerns HCMV. Also on record: method as in ref 35, 38 (a number printed in a supplementary file, which may have a reference list of its own: not looked up in the article's list). Particulars: Table S1; read-out: antiviral EC50, HCMV; cited from earlier work.
The test system of data set [13] is HHV-6A. Also on record: method as in ref 35 (a number printed in a supplementary file, which may have a reference list of its own: not looked up in the article's list). As to conditions: Table S1; J-Jhan cells; read-out: antiviral EC50, HHV-6A (J-Jhan); cited from earlier work.
The subject of data set [14] is SARS-CoV-2 d6-YFP.
In data set [15] the test system is HSV-1. The arrangement: method as in ref 35, 38 (a number printed in a supplementary file, which may have a reference list of its own: not looked up in the article's list). Particulars: Table S1; read-out: antiviral EC50, HSV-1; cited from earlier work.
The test system of data set [16] is RCMV. Also on record: method as in ref 35, 38 (a number printed in a supplementary file, which may have a reference list of its own: not looked up in the article's list). Particulars: Table S1; read-out: antiviral EC50, RCMV; cited from earlier work.
Data set [17] has as its system MCMV. The arrangement: method as in ref 35, 38 (a number printed in a supplementary file, which may have a reference list of its own: not looked up in the article's list). Particulars: Table S1; read-out: antiviral EC50, MCMV; cited from earlier work.
Data set [18] concerns GPCMV. Also on record: method as in ref 35, 38 (a number printed in a supplementary file, which may have a reference list of its own: not looked up in the article's list). As to conditions: Table S1; read-out: antiviral EC50, GPCMV; cited from earlier work.
Data set [19] relates to ChCMV. Also on record: method as in ref 35, 38 (a number printed in a supplementary file, which may have a reference list of its own: not looked up in the article's list). As to conditions: Table S1; read-out: antiviral EC50, ChCMV; cited from earlier work.
The subject of data set [20] is 293T-tdTom-Luc cells.
Data set [21] relates to Vero cells.
In data set [22] the test system is Caco-2 cells.
The test system of data set [23] is VZV. Also on record: method as in ref 35, 38 (a number printed in a supplementary file, which may have a reference list of its own: not looked up in the article's list). Particulars: Table S1; read-out: antiviral EC50, VZV; cited from earlier work.
The test system of data set [24] is HAdV. The arrangement: method as in ref 35, 38 (a number printed in a supplementary file, which may have a reference list of its own: not looked up in the article's list). As to conditions: Table S1; read-out: antiviral EC50, HAdV; cited from earlier work.
Data set [25] deals with P3HR-1 cells.
The test system of data set [26] is EHV-1. Put plainly: EHV-1-specific qPCR of virus release into culture medium. As to conditions: EHV-1, read-out: EC50. Format: cell-based, equine herpesvirus 1.
The subject of data set [27] is KSHV. Also on record: method as in ref 35, 38 (a number printed in a supplementary file, which may have a reference list of its own: not looked up in the article's list). Particulars: Table S1; read-out: antiviral EC50, KSHV; cited from earlier work.
Data set [28] deals with MEFs.
The test system of data set [29] is RhCMV. The arrangement: method as in ref 35, 38 (a number printed in a supplementary file, which may have a reference list of its own: not looked up in the article's list). As to conditions: Table S1; read-out: antiviral EC50, RhCMV; cited from earlier work.
Data set [30] in a line: in vitro. As to conditions: human, CC50.
The nature of data set [31]: in vitro. As to conditions: African green monkey.
A short description of data set [32]: in vitro. As to conditions: mouse.
The mark [33] stands for this setting: CC50, COS-7, listed with GFP / COS-7 (Fig 1E).
Setting [34] is: Orthopoxvirus vaccinia, 48 h, read-out: Antiviral mean EC50 based on luciferase measurements.
[35] abbreviates: mean CC50, HFF, HHV-6A assay conditions (Fig 2D).
The mark [36] stands for this setting: CC50, Vero, reference compounds (Fig 1E).
Where [37] appears, read: human gammaherpesvirus 4, 240 h, EBV, TPA-induced P3HR-1, 10 d, read-out: Antiviral mean EC50 based on qPCR measurements.

Regarding `O=C(O)P(=O)(O)O` [FOS, foscarnet], the EC50 in data set [1] (MHV-68-Luc, HFF) is more than 500 µM; in data set [1] (MHV-68-Luc, MEF), 41.5 ± 17.5 µM; in data set [1] (Vero, MHV-68-Luc), 36.4 ± 10.8 µM. Moreover, the CC50 at 7 d in [2] is more than 1000 µM; in data set [4] (CC50, Vero (Fig 4F)), more than 1000 µM. In data set [3] (CC50, HFF (Fig 4F)), the CC50 is more than 1000 µM.
In [5], `CCCCCCCCCCCCCCCCOCCCOP(=O)(O)CO[C@H](CO)Cn1ccc(N)nc1=O` [BCV, brincidofovir] returned a CC50 at 2 d of more than 10 µM. The EC50 in data set [6] was 0.03 ± 0.01 µM; in [6] (COS-7) it was 0.04 ± 0.003 µM; in data set [6] (Equus caballus, Vero), 0.002 ± 0.003 µM; in data set [7] (Human betaherpesvirus 6A), 0.002 ± 0.001 µM; in data set [1] (COS-7, MHV-68-Luc, COS-7) it was 0.2 ± 0.04 µM; in [1] (MHV-68-Luc, HFF), more than 0.5 µM. Besides, the EC50 in data set [1] (MHV-68-Luc, MEF) stood at 0.1 ± 0.07 µM; in data set [1] (Vero, MHV-68-Luc) it was 0.01 ± 0.003 µM; in data set [9] (setting [34]), 1.9 ± 0.4 µM. Moreover, the CC50 at 7 d was more than 10 µM in [2]; more than 10 µM in [4] (CC50, Vero (Fig 4F)); 1.3 ± 1.4 µM in data set [4] (setting [36]). Further, the CC50 at 4 d in data set [8] (CC50, COS-7 (Fig 4F)) was more than 10 µM; in [8] (setting [33]), 9.8 ± 1.9 µM. Further, the CC50 in [3] (CC50, HFF, reference compounds (Fig 1E)) was 19 ± 3 µM; in data set [3] (setting [35]), more than 10 µM.
`COc1cccc(N2CCN(C3=Nc4c(F)cccc4[C@H](CC(=O)O)N3c3cc(C(F)(F)F)ccc3OC)CC2)c1` [LMV, letermovir]: the half-maximal effective concentration (EC50) in data set [1] (MHV-68-Luc, HFF) is more than 50 µM; in data set [1] (MHV-68-Luc, MEF) it was more than 50 µM; in data set [1] (Vero, MHV-68-Luc), 44 ± 3.2 µM; in data set [9] (setting [34]), more than 50 µM.
Consider `Nc1ncnc2c1ncn2CCOCP(=O)(O)O` [AFV, adefovir], for which the CC50 in data set [10] is more than 100 µM. Besides, in [11] (setting [37]), the EC50 was determined as 13 ± 5 µM.
`CC(C)(C)C(=O)OCOP(=O)(COCCn1cnc2c(N)ncnc21)OCOC(=O)C(C)(C)C` [ADV, adefovir dipivoxil] had a CC50 at 10 d in [10] of 93 µM. Further, the EC50 in data set [11] (setting [37]) was 1.7 ± 0.2 µM.
As to `Cc1n[nH]c2ncc(C(=O)N3CCC[C@H]3c3ccc(Cl)cc3)cc12` [MSC-2530818], the EC50 in data set [12] was 0.001 ± 0.0007 µM; in [13] it was more than 50 µM; in [14] (read-out: Antiviral mean EC50 based on YFP measurements, SARS-CoV-2 d6-YFP, Caco-2, […]), not below 15.4 µM; in [14] (read-out: antiviral EC50, SARS-CoV-2, Table S1), 15.4 ± 6.4 µM; in data set [15], 42.3 ± 4.9 µM; in [16] it was 0.003 ± 0.008 µM. Also, the EC50 in data set [17] is 0.02 ± 0.02 µM; in data set [7] (HHV-6A, HFF) it was 0.2 ± 0.4 µM; in [18], 0.03 ± 0.05 µM; in data set [19], 0.02 ± 0.03 µM; in [23] it was more than 50 µM; in data set [24], 0.3 ± 0.3 µM. For the same compound, the EC50 was 1.4 ± 0.6 µM in [11] (Table S1, read-out: antiviral EC50, EBV); more than 50 µM in data set [9] (read-out: antiviral EC50, VV); 0.7 ± 0.9 µM in data set [26] (qPCR / COS-7); 0.08 ± 0.2 µM in data set [26] (qPCR / HFF); more than 40 µM in data set [27]; 0.002 ± 0.001 µM in data set [29]. In addition, the “CDK8 inhibitor sensitivity of SARS-CoV-2 in Caco-2 cells” value in data set [14] (in words) is recorded as “low level of sensitivity”. The CC50 in data set [20], in [21], in data set [22], in data set [25] and in [28] was more than 100 µM throughout.
Take `CC(C)Nc1nc2cc(Cl)c(Cl)cc2n1[C@H]1O[C@@H](CO)[C@H](O)[C@@H]1O` [MBV, maribavir]: the EC50 in data set [1] (COS-7, MHV-68-Luc, COS-7) is more than 50 µM; in data set [1] (MHV-68-Luc, HFF), 269 ± 55.5 µM; in data set [1] (MHV-68-Luc, MEF) it was 59.6 ± 2.2 µM; in data set [1] (Vero, MHV-68-Luc), 88.9 ± 13.6 µM. Further, the CC50 at 7 d is 179 ± 10 µM in [2] and more than 1000 µM in data set [4] (CC50, Vero (Fig 4F)). In [8] (CC50, COS-7 (Fig 4F)), this compound returned a CC50 at 4 d of more than 100 µM. In addition, the CC50 in data set [3] (CC50, HFF (Fig 4F)) worked out at 163 ± 9 µM.
In the case of `Nc1ccn(C[C@@H](CO)OCP(=O)(O)O)c(=O)n1` [CDV, cidofovir], the EC50 was 3.2 ± 3.8 µM in data set [6] (COS-7); 4.5 ± 2.4 µM in [6] (Equus caballus, Vero); 0.4 ± 0.1 µM in [7] (Human betaherpesvirus 6A). In data set [8] (setting [33]), this compound had a CC50 at 4 d of 85.6 ± 6.6 µM. In [3] (setting [35]), this compound showed a CC50 of more than 100 µM. Moreover, the CC50 at 7 d in [4] (setting [36]) was more than 100 µM.
`Nc1nc2c(ncn2COCCO)c(=O)[nH]1` [ACV, aciclovir] came in with a CC50 in data set [30] of more than 100 µM. The CC50 at 7 d in data set [31] and in data set [32] was more than 100 µM throughout. The EC50 was more than 5 µM in data set [1] (MHV-68-Luc, HFF); 22.2 ± 5.5 µM in [1] (MHV-68-Luc, MEF); 0.3 ± 0.3 µM in [1] (Vero, MHV-68-Luc).
